Values of other authors as cited in patent US20050244368A1, “Pre-endoscopic use of polyethylene glycol compositions” (priority 2004, published 2005).

Details: % of adult patients (Zwas et al., 1996)

In the case of `O=P(O)(O)O` [sodium phosphate], the “colonic mucosal changes mimicking inflammatory bowel disease” value is listed as “up to 24%”.
